{
  "source": "patent US5874597A",
  "about": "“Certain aminosterol compounds and pharmaceutical compositions including these compounds” (priority 1995, dated 1999)",
  "key": {"[1]": {"experiment": "fasting blood glucose in mice", "type": "in vivo, mouse", "details": "intravenous; vs. Group 1", "procedure": "To study the effect of steroid administrator or the NHE responsible for secretion of insulin, several of the aminosterols from shark liver were administered to fasting mice. Male CD-1 mice were assigned to one of four treatment groups. Whole blood glucose was tested using glucometer (Lifescan Glucometer II and One Touch test strips). Statistical analysis was via one-way analysis of variance (ANOVA) followed by subsequent Bonferonni's t-test."}, "[2]": {"tested_on": "Xenopus tadpole (stage 59-60)", "experiment": "Xenopus tadpole assay", "type": "in vivo, Xenopus laevis", "details": "10 μg/ml; about 1 hour"}, "[3]": {"tested_on": "Human ovarian carcinoma SKOV3", "experiment": "growth inhibition of SKOV3", "type": "cell-based", "description": "(§1) As set forth in Table 7 below, all malignant tumors evaluated in tissue culture, endothelial cells and vascular smooth muscle cells were sensitive to inhibition. Thus, compound 1436 has application in the control of growth factor dependent proliferation of many types of tissue."}, "[4]": {"tested_on": "vitelline capillaries of chick embryo", "experiment": "chick embryo vitelline capillary regression assay", "type": "in vivo", "procedure": "Using the chick embryo vitelline capillaries assay, compounds were tested for their ability to induce capillary regression. Each compound was applied in 0.1 ml of 15% Ficol 400 and PBS onto the embryo, and vascular regression was assessed after 60 minutes.\nThe 3-day chick embryo consists of an embryonic disc from which numerous vessels emerge and return, forming a \"figure 8\"-shaped structure--the embryo in the center with vascular loops extending outward over both poles. […] Following a lag period of around 15 minutes, the constriction of continuity between capillary and secondary vessels, generally on the \"venous\" side, was observed. Continued pulsatile blood flow progressed, resulting in a \"swelling\" of the blind tube, followed by a pinching off of the remaining connection and formation of an enclosed vascular sac resembling a \"blood island.\" This process progressed until only the largest vessels remained intact."}, "[5]": {"tested_on": "L1210 lymphoblastic leukemia", "experiment": "mouse L1210 leukemia model, survival", "type": "in vivo", "details": "highest dose, 10 mg/kg every 3 days i.p."}, "[6]": {"experiment": "arterial resistance in the rat after i.v. administration", "type": "in vivo", "procedure": "A 200-g rat was catheterized in the right carotid artery, and the compound was introduced over a ten-second period to a total dosage of 5 mg/kg. Within 30 seconds, the mean arterial pressure had fallen from about 100 mm Hg to about 70 mm Hg, with a marked reduction in pulse pressure from about 40 mm to about 10 mm. […] If cardiac output was basically unaffected, reduction in blood pressure would have resulted principally from a reduction in system resistance.\nAt that time, 40 μg of noradrenaline was introduced."}, "[7]": {"tested_on": "Human coronary artery smooth muscle cells", "experiment": "proliferation of human coronary artery smooth muscle in vitro", "type": "cell-based", "details": "FIG. 15", "description": "as §1\nAminosterols of the invention may also have utility in inhibiting the growth factor mediated proliferation of smooth muscle within the artery. Following coronary angioplasty, reocclusion commonly occurs, secondary to reparative proliferation of the vascular smooth muscle within the wall of the surgically manipulated blood vessel. This process generally takes place over the course of 7-10 days. To evaluate whether an agent could prevent the growth factor mediated proliferation of smooth muscle within the artery, compound 1436 was evaluated in vitro for its effect on the proliferation of human coronary artery smooth muscle. Results for compound 1436 are shown in FIG. 13, and those for squalamine are shown in FIG. 14, with FIG. 15 being a composite logarithmic plot."}, "[8]": {"biological_target": "rabbit NHE3 (Oryctolagus cuniculus, UniProt P26432)", "sequence (P26432 30-832)": "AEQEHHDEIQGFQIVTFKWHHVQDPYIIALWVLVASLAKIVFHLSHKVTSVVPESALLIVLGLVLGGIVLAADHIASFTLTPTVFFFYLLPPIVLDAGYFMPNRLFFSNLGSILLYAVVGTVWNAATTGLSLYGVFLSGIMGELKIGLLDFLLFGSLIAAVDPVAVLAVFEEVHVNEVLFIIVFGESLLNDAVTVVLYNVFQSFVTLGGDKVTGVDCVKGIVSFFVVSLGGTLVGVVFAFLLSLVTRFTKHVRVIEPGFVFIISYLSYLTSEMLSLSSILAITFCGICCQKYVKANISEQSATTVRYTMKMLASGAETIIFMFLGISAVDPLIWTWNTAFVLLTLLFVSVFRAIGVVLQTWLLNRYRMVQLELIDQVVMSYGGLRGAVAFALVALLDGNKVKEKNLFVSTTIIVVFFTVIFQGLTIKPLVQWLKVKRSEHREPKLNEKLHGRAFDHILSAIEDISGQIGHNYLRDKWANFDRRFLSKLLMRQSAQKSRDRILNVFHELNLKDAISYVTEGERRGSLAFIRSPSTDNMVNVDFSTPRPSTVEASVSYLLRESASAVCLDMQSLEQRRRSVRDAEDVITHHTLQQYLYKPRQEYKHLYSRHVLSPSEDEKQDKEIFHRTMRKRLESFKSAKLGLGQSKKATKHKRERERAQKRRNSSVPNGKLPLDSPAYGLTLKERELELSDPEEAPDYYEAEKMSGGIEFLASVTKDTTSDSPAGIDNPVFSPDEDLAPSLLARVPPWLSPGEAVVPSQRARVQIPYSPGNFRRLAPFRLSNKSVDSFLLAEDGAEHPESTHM", "experiment": "inhibition of rabbit NHE3 in transfected PS120 fibroblasts (internal pH, BCECF-AM)", "details": "10 μg/ml; acid-preloaded 40 mM NH4Cl", "experimental": "Internal pH was measured either following acid loading or in the absence of an acid-loading challenge, with the results shown in FIGS. 1A and 1B.\nSpecifically, PS120 fibroblasts transfected with rabbit NHE3 were grown in supplemented Dulbecco's-modified Eagle's medium as described by Levine et al., J. Biol. Chem. 268, 1993, 25527-25535. […] For cells not acid-preloaded, the actual internal pH value was monitored as a function of time following addition of squalamine, with the results depicted in FIG. 1B.\nPS120 fibroblasts transfected with rabbit NHE3 were grown and acid preloaded by exposure to 40 mM NH4 Cl as described above in conjunction with FIGS. 1A and 1B. Internal cellular pH changes expressed as the rate of pH recovery as a function of restored extracellular sodium ion concentration following exposure to 10 μg/ml of the compound were assayed with the fluorescent dye BCECF-AM as described above."}, "[9]": {"tested_on": "B16 melanoma", "experiment": "suppression of B16 melanoma growth in C57B mice", "type": "in vivo, mouse", "details": "compound 1436 10 mg/kg/every 3 days alone", "procedure": "The growth of B16 melanoma in C57B mice is dependent upon neovascularization.\nUsing the growth of B16 melanoma cells in C57B mice, a recognized model for the evaluation of inhibitors of angiogenesis on the growth of cancers, the effects of subcutaneous, intraperitoneal and oral administration of squalamine were evaluated.\nBased on the idea that tumor growth involves both the clonal expansion of a malignant cell along with the development of a supporting vascular supply, a combination of compound 1436 with squalamine was tested to determine whether it would achieve a synergistic effect on solid tumor growth. This concept was evaluated in the B16 melanoma model.\nAnimals were implanted with B16 melanoma followed by treatment with compound 1436 or 1256 administered in a combined schedule or separately. […] Thus, a combination of these two compounds achieves a therapeutic benefit in tumors dependent on neovascularization that may prevent metastatic spread."}, "[10]": {"experiment": "growth and weight gain of C57B mice", "type": "in vivo, mouse", "details": "10 mg/kg QTD i.p.; 6 doses, about 1 month", "procedure": "Animals were dosed QTD (i.p.) starting on Day 1. […] Animals receiving 5 mg/kg QTD experienced about a 50% reduction in growth, compared to untreated controls, while animals receiving 1 mg/kg QTD were affected by about 10%. […] They appeared very much like hypophysectamized animals might appear."}, "[11]": {"tested_on": "HM", "experiment": "HM MTT assay", "type": "cell-based", "details": "Table II; read-out: HM MTT assay, Minimum Effective Concentration"}, "[12]": {"tested_on": "LLC", "experiment": "LLC MTT", "type": "cell-based", "details": "Lewis lung carcinoma; Table II; read-out: LLC MTT, Minimum Effective Concentration"}},
  "note": "Entries after “also recorded” stand apart in the source; their conditions may differ.",
  "data": [
    {"smiles": "CC(C)C(CO)(CC[C@@H](C)[C@H]1CC[C@H]2[C@@H]3[C@H](O)C[C@H]4C[C@@H](NCCCNCCCCN)CC[C@]4(C)[C@H]3CC[C@]12C)OS(=O)(=O)O", "note": "(single isomer, unassigned) [Compound 1437]", "values": [
      {"measurement": "fasting blood glucose effect", "setting": "[1]", "result": "caused hyperglycemia in mice"},
      {"measurement": "tadpole response", "setting": "[2]", "result": "Epithelium covering the embryonic portions of the animal, such as the tail and antennae, began to slough off in sheets; also recorded: the larval skin was observed to shed off in a sheet"},
      {"measurement": "anticancer activity against SKOV3", "setting": "[3]", "result": "anticancer activity against the human ovarian carcinoma, SKOV3"}
    ]},
    {"smiles": "CC(C)[C@@H](CC[C@@H](C)[C@H]1CC[C@H]2[C@@H]3[C@H](O)C[C@H]4C[C@@H](NCCCNCCCCNCCCN)CC[C@]4(C)[C@H]3CC[C@]12C)OS(=O)(=O)O", "note": "[Compound 1436]", "values": [
      {"measurement": "effect on vitelline capillaries / chick embryo", "setting": "[4]; in vivo", "result": "about the same potency as squalamine"},
      {"measurement": "prolongation of life", "setting": "[5]", "result": "significant prolongation of life"},
      {"measurement": "reversibility of effect", "setting": "[6]; 40 μg noradrenaline", "result": "readily reversible"},
      {"measurement": "persistence of effect", "setting": "[6]; followed for 30 minutes", "result": "without significant change"},
      {"measurement": "suppression of growth of human coronary artery smooth muscle", "setting": "[7]", "result": "suppress in vitro the growth of human coronary artery smooth muscle"},
      {"measurement": "inhibition of rabbit NHE3", "setting": "[8]", "result": "inhibit rabbit NHE3"},
      {"measurement": "fasting blood glucose effect", "setting": "[1]", "result": "caused hyperglycemia in mice"},
      {"measurement": "tadpole response", "setting": "[2]", "result": "common vascular occlusive effect; also recorded: Gradual reduction in overall activity; also recorded: Heart beat remained strong, suggesting nervous system depression; also recorded: Melanocytes over head and tail began to swell; also recorded: dramatic disruption of melanocytes over its head, trunk, and tail; also recorded: No effects are observed on epithelial cell integrity, vascular flow, erythrocyte volume, tissue integrity, muscle fiber striation, or GI tract activity"},
      {"measurement": "impact on tumor volume", "setting": "[9]", "result": "no significant impact on tumor volume"},
      {"measurement": "growth inhibition in mice", "setting": "[10]", "result": "growth was almost completely inhibited"}
    ]},
    {"smiles": "CC(CCC(=O)O)[C@H]1CCC2C3C(CC[C@@]21C)[C@@]1(C)CC[C@@H](NCCCNCCCCN)CC1C[C@H]3O", "note": "(single isomer, unassigned)", "values": [
      {"measurement": "Chick embryo diss. assay, Minimum Effective Concentration", "setting": "[4]; Table II", "result": 0.01, "unit": "µg"},
      {"measurement": "minimal effective concentration", "setting": "[11]", "result": 58.6, "unit": "µg/mL"}
    ]},
    {"smiles": "CC(C)CCC[C@@H](C)[C@H]1CC[C@H]2[C@@H]3CC[C@H]4C[C@@H](NCCCNCCCCNCCCN)CC[C@]4(C)[C@H]3CC[C@]12C", "note": "[drawing 82]", "values": [
      {"measurement": "minimal effective concentration", "setting": "[12]", "result": 3, "unit": "µg/mL"}
    ]}
  ]
}
